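Growth conditions: 96-well plates. Treatment: test compound, 48 hours, 5 concentrations. Analysis: linear interpolation between bracketing concentrations; unreached endpoints set to highest concentration. GI50 = concentration required for 50% inhibition of growth. TGI: concentration producing complete growth inhibition.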
Tests used:
Assay in all cases: DTP human tumour cell line panel, 48 h
HT29 colon = tested on: HT29 colon
UACC-62 melanoma = tested on: UACC-62 melanoma
OVCAR-8 ovarian = tested on: OVCAR-8 ovarian
SNB-75 CNS = tested on: SNB-75 CNS
CCRF-CEM leukemia = tested on: CCRF-CEM leukemia
MDA-MB-435 = tested on: MDA-MB-435
OVCAR-5 ovarian = tested on: OVCAR-5 ovarian
HCT-15 colon = tested on: HCT-15 colon
RXF 393 renal = tested on: RXF 393 renal
HCC-2998 colon = tested on: HCC-2998 colon
BT-549 breast = tested on: BT-549 breast
M14 melanoma = tested on: M14 melanoma
MALME-3M melanoma = tested on: MALME-3M melanoma
OVCAR-3 ovarian = tested on: OVCAR-3 ovarian
HL-60(TB) leukemia = tested on: HL-60(TB) leukemia
KM12 colon = tested on: KM12 colon
OVCAR-4 ovarian = tested on: OVCAR-4 ovarian
UO-31 renal = tested on: UO-31 renal
T-47D breast = tested on: T-47D breast
RPMI-8226 leukemia = tested on: RPMI-8226 leukemia
HCT-116 colon = tested on: HCT-116 colon
NCI-H226 lung = tested on: NCI-H226 lung
NCI/ADR-RES ovarian = tested on: NCI/ADR-RES ovarian
MOLT-4 leukemia = tested on: MOLT-4 leukemia
HOP-62 NSCLC = tested on: HOP-62 NSCLC
LOX IMVI melanoma = tested on: LOX IMVI melanoma
A498 renal = tested on: A498 renal
PC-3 prostate = tested on: PC-3 prostate
SR leukemia = tested on: SR leukemia
NCI-H460 lung = tested on: NCI-H460 lung
ACHN renal = tested on: ACHN renal
U251 CNS = tested on: U251 CNS
SW-620 colon = tested on: SW-620 colon
COLO 205 colon = tested on: COLO 205 colon
K-562 leukemia = tested on: K-562 leukemia
NCI-H522 lung = tested on: NCI-H522 lung
786-0 renal = tested on: 786-0 renal
SK-MEL-28 melanoma = tested on: SK-MEL-28 melanoma
UACC-257 melanoma = tested on: UACC-257 melanoma
SF-539 CNS = tested on: SF-539 CNS
SK-OV-3 ovarian = tested on: SK-OV-3 ovarian
IGROV1 ovarian = tested on: IGROV1 ovarian
TK-10 renal = tested on: TK-10 renal
MCF7 breast = tested on: MCF7 breast
SF-268 CNS = tested on: SF-268 CNS
HS 578T breast = tested on: HS 578T breast
CAKI-1 renal = tested on: CAKI-1 renal
SF-295 CNS = tested on: SF-295 CNS
MDA-MB-231 breast = tested on: MDA-MB-231 breast
MDA-MB-468 breast = tested on: MDA-MB-468 breast
NCI-H23 lung = tested on: NCI-H23 lung
SNB-19 CNS = tested on: SNB-19 CNS
A549 NSCLC = tested on: A549 NSCLC
EKVX NSCLC = tested on: EKVX NSCLC
DU-145 prostate = tested on: DU-145 prostate
HOP-92 NSCLC = tested on: HOP-92 NSCLC
SK-MEL-2 melanoma = tested on: SK-MEL-2 melanoma
SK-MEL-5 melanoma = tested on: SK-MEL-5 melanoma
SN12C renal = tested on: SN12C renal

Compound `O=c1ccc(Cn2c(C(F)(F)F)cc3c(Cl)ncnc32)c[nH]1` has a GI50 (HT29 colon) of 29 µM, a TGI (HT29 colon) of over 100 µM and a GI50 (UACC-62 melanoma) of 5.55 µM. For the same compound, the TGI (UACC-62 melanoma) was 19.7 µM, the GI50 (OVCAR-8 ovarian) was 3.51 µM and the TGI (OVCAR-8 ovarian) was 17.3 µM. It also gave a GI50 (SNB-75 CNS) of 10.7 µM, a TGI (SNB-75 CNS) of 23.2 µM and a GI50 (CCRF-CEM leukemia) of 4.32 µM. For the same compound, the TGI (CCRF-CEM leukemia) was over 100 µM, the GI50 (MDA-MB-435) was 4.69 µM and the TGI (MDA-MB-435) was 20.5 µM. For the same compound, the GI50 (OVCAR-5 ovarian) was 61.7 µM, the TGI (OVCAR-5 ovarian) was over 100 µM and the GI50 (HCT-15 colon) was 2.93 µM. The TGI (HCT-15 colon) was 14.9 µM, the GI50 (RXF 393 renal) was 11.2 µM and the TGI (RXF 393 renal) was 32.1 µM. The GI50 (HCC-2998 colon) was 2.9 µM, the TGI (HCC-2998 colon) was 10.1 µM and the GI50 (BT-549 breast) was 14 µM. The TGI (BT-549 breast) was 28.8 µM, the GI50 (M14 melanoma) was 4.08 µM and the TGI (M14 melanoma) was 22.1 µM. For the same compound, the GI50 (MALME-3M melanoma) was 15.9 µM, the TGI (MALME-3M melanoma) was 35 µM and the GI50 (OVCAR-3 ovarian) was 14.9 µM. The TGI (OVCAR-3 ovarian) was 32.8 µM, the GI50 (HL-60(TB) leukemia) was 2.1 µM and the TGI (HL-60(TB) leukemia) was 5.97 µM. The GI50 (KM12 colon) was 17.9 µM, the TGI (KM12 colon) was 40.3 µM and the GI50 (OVCAR-4 ovarian) was 17.9 µM. The TGI (OVCAR-4 ovarian) was 44.6 µM, the GI50 (UO-31 renal) was 5.05 µM and the TGI (UO-31 renal) was 19.2 µM. The GI50 (T-47D breast) was 30.3 µM, the TGI (T-47D breast) was over 100 µM and the GI50 (RPMI-8226 leukemia) was 23 µM. It also gave a TGI (RPMI-8226 leukemia) of over 100 µM, a GI50 (HCT-116 colon) of 3.51 µM and a TGI (HCT-116 colon) of 29.2 µM. For the same compound, the GI50 (NCI-H226 lung) was 31.7 µM, the TGI (NCI-H226 lung) was over 100 µM and the GI50 (NCI/ADR-RES ovarian) was 14.2 µM. It also gave a TGI (NCI/ADR-RES ovarian) of 40.3 µM, a GI50 (MOLT-4 leukemia) of 3.21 µM and a TGI (MOLT-4 leukemia) of 17.2 µM. The GI50 (HOP-62 NSCLC) was 46.7 µM, the TGI (HOP-62 NSCLC) was over 100 µM and the GI50 (LOX IMVI melanoma) was 1.65 µM. The TGI (LOX IMVI melanoma) was 3.11 µM, the GI50 (A498 renal) was over 100 µM and the TGI (A498 renal) was over 100 µM. It also gave a GI50 (PC-3 prostate) of 17.1 µM, a TGI (PC-3 prostate) of 55.8 µM and a GI50 (SR leukemia) of 2.73 µM. For the same compound, the TGI (SR leukemia) was 11.8 µM, the GI50 (NCI-H460 lung) was 12 µM and the TGI (NCI-H460 lung) was 36.2 µM. The GI50 (ACHN renal) was 22.2 µM, the TGI (ACHN renal) was over 100 µM and the GI50 (U251 CNS) was 22.5 µM. For the same compound, the TGI (U251 CNS) was 69.2 µM, the GI50 (SW-620 colon) was 5.55 µM and the TGI (SW-620 colon) was 26.3 µM. For the same compound, the GI50 (COLO 205 colon) was 86.6 µM, the TGI (COLO 205 colon) was over 100 µM and the GI50 (K-562 leukemia) was 2.83 µM. It also gave a TGI (K-562 leukemia) of over 100 µM, a GI50 (NCI-H522 lung) of 2.05 µM and a TGI (NCI-H522 lung) of 4.85 µM. It also gave a GI50 (786-0 renal) of 43.5 µM, a TGI (786-0 renal) of over 100 µM and a GI50 (SK-MEL-28 melanoma) of 3.9 µM. For the same compound, the TGI (SK-MEL-28 melanoma) was 18.7 µM, the GI50 (UACC-257 melanoma) was 3.18 µM and the TGI (UACC-257 melanoma) was 12.9 µM. For the same compound, the GI50 (SF-539 CNS) was 17.3 µM, the TGI (SF-539 CNS) was 40.9 µM and the GI50 (SK-OV-3 ovarian) was 44.3 µM. The TGI (SK-OV-3 ovarian) was over 100 µM, the GI50 (IGROV1 ovarian) was 2.29 µM and the TGI (IGROV1 ovarian) was 6.09 µM. It also gave a GI50 (TK-10 renal) of over 100 µM, a TGI (TK-10 renal) of over 100 µM and a GI50 (MCF7 breast) of 21.1 µM. The TGI (MCF7 breast) was 67.9 µM, the GI50 (SF-268 CNS) was 10.6 µM and the TGI (SF-268 CNS) was 28.9 µM. For the same compound, the GI50 (HS 578T breast) was 8.76 µM, the TGI (HS 578T breast) was 50.4 µM and the GI50 (CAKI-1 renal) was 23.5 µM. For the same compound, the TGI (CAKI-1 renal) was 99.4 µM, the GI50 (SF-295 CNS) was 28.2 µM and the TGI (SF-295 CNS) was over 100 µM. It also gave a GI50 (MDA-MB-231 breast) of 4.65 µM, a TGI (MDA-MB-231 breast) of 18.2 µM and a GI50 (MDA-MB-468 breast) of 2.1 µM. The TGI (MDA-MB-468 breast) was 5.73 µM, the GI50 (NCI-H23 lung) was 3.97 µM and the TGI (NCI-H23 lung) was 18.4 µM. The GI50 (SNB-19 CNS) was 20.7 µM, the TGI (SNB-19 CNS) was 59.4 µM and the GI50 (A549 NSCLC) was 64.8 µM. For the same compound, the TGI (A549 NSCLC) was over 100 µM, the GI50 (EKVX NSCLC) was 14.2 µM and the TGI (EKVX NSCLC) was 36 µM. For the same compound, the GI50 (DU-145 prostate) was 38.7 µM, the TGI (DU-145 prostate) was over 100 µM and the GI50 (HOP-92 NSCLC) was 23 µM. The TGI (HOP-92 NSCLC) was over 100 µM, the GI50 (SK-MEL-2 melanoma) was 16.9 µM and the TGI (SK-MEL-2 melanoma) was 32.6 µM. For the same compound, the GI50 (SK-MEL-5 melanoma) was 4.06 µM, the TGI (SK-MEL-5 melanoma) was 15 µM and the GI50 (SN12C renal) was 6.42 µM. The TGI (SN12C renal) was 23.4 µM.

From PubChem BioAssay (NCI)
